In ChEMBL document CHEMBL2169810, “Carbamoylphosphonates control tumor cell proliferation and dissemination by simultaneously inhibiting carbonic anhydrase IX and matrix metalloproteinase-2. Toward nontoxic chemotherapy targeting tumor microenvironment” (J Med Chem, 2012):

Columns and labels:
Carbonic anhydrase 1 = Carbonic anhydrase 1 (Homo sapiens, UniProt P00915); assay: Inhibition of human Carbonic anhydrase 1-mediated CO2 hydration by stopped-flow method
Carbonic anhydrase 9 = Carbonic anhydrase 9 (Homo sapiens, UniProt Q16790); assay: Inhibition of human Carbonic anhydrase 9-mediated CO2 hydration by stopped-flow method
Carbonic anhydrase 2 = Carbonic anhydrase 2 (Homo sapiens, UniProt P00918); assay: Inhibition of human Carbonic anhydrase 2-mediated CO2 hydration by stopped-flow method
[1] = target: T1, 72 kDa type IV collagenase (Homo sapiens, UniProt P08253); assay: Inhibition of MMP2
Carbonic anhydrase 12 = Carbonic anhydrase 12 (Homo sapiens, UniProt O43570); assay: Inhibition of human Carbonic anhydrase 12-mediated CO2 hydration by stopped-flow method
B16-F10 [2] = assay: Antimetastatic activity against mouse B16F10 cells xenografted in C57BL mouse assessed as decrease in lung metastasis at 50 mg/kg, ip administered QD measured after 21 days; assay type: functional; set-up: scale not given: the % may be the effect or the level left; details: route intraperitoneal
B16-F10 [3] = assay: Antimetastatic activity against mouse B16F10 cells xenografted in C57BL mouse assessed as decrease in lung metastasis at 50 mg/kg, po administered QD measured after 21 days; assay type: functional; set-up: scale not given: the % may be the effect or the level left
HT-1080 [4] = assay: Cytotoxicity against human HT1080 cells assessed as increase in LDH level after 24 hrs in hypoxic condition by spectrophotometric analysis relative to control; assay type: functional, cell-based
HeLa [5] = assay: Cytotoxicity against human HeLa cells assessed as increase in LDH level up to 100 uM after 24 hrs in normoxic condition by spectrophotometric analysis relative to control; assay type: cell-based
HT-1080 [6] = assay: Cytotoxicity against human HT1080 cells assessed as increase in LDH level at 1 uM after 24 hrs in hypoxic condition by spectrophotometric analysis relative to control; assay type: functional
B16-F10 [7] = assay: Antimetastatic activity against mouse B16F10 cells xenografted in C57BL mouse assessed as decrease in lung metastasis at 25 mg/kg, ip administered QD measured after 21 days; assay type: functional; set-up: scale not given: the % may be the effect or the level left; details: route intraperitoneal
HT-1080 [8] = assay: Cytotoxicity against human HT1080 cells assessed as increase in LDH level at 50 uM after 24 hrs in hypoxic condition by spectrophotometric analysis relative to control; assay type: functional
[9] = target: T1, 72 kDa type IV collagenase; assay: Inhibition of human recombinant MMP2 measured every 5 mins for 3 hrs
HT-1080 [10] = assay: Cytotoxicity against human HT1080 cells assessed as increase in LDH level at 10 uM after 24 hrs in hypoxic condition by spectrophotometric analysis relative to control; assay type: functional
B16-F10 [11] = assay: Antimetastatic activity against mouse B16F10 cells xenografted in C57BL mouse assessed as decrease in lung metastasis at 12.5 mg/kg, ip administered QD measured after 21 days; assay type: functional; set-up: scale not given: the % may be the effect or the level left; details: route intraperitoneal
HT-1080 [12] = assay: Cytotoxicity against human HT1080 cells assessed as increase in LDH level up to 100 uM after 24 hrs in normoxic condition by spectrophotometric analysis relative to control; assay type: cell-based; details: ht-1080, 24 h
HeLa [13] = assay: Cytotoxicity against human HeLa cells assessed as increase in LDH level after 24 hrs in hypoxic condition by spectrophotometric analysis relative to control; assay type: functional, cell-based
[14] = Half life in Sprague-Dawley rat at 33 mg/kg, iv; assay type: ADME, organism-based; set-up: dose 33 mg/kg, route intravenous; details: in vivo
Hydroxyapatite = assay: Binding affinity to bone mineral hydroxyapatite at 100 uM after 17 hrs
HeLa [15] = assay: Cytotoxicity against human HeLa cells assessed as increase in LDH level at 50 uM after 24 hrs in hypoxic condition by spectrophotometric analysis relative to control; assay type: functional
[16] = Volume of distribution at steady state in Sprague-Dawley rat at 33 mg/kg, iv; assay type: ADME, organism-based; set-up: dose 33 mg/kg, route intravenous; details: in vivo, read-out: Vdss

Sequence of Carbonic anhydrase 12 (O43570 whole entry): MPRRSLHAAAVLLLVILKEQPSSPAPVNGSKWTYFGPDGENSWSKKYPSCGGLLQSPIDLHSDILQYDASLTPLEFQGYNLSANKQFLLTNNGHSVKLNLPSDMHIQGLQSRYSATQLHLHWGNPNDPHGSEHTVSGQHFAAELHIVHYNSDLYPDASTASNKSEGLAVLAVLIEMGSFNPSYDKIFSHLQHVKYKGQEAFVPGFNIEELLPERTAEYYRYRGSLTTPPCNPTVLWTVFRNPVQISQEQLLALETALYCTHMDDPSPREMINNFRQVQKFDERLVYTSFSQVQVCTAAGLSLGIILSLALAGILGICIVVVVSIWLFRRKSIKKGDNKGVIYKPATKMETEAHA
T1 sequence (P08253 whole entry): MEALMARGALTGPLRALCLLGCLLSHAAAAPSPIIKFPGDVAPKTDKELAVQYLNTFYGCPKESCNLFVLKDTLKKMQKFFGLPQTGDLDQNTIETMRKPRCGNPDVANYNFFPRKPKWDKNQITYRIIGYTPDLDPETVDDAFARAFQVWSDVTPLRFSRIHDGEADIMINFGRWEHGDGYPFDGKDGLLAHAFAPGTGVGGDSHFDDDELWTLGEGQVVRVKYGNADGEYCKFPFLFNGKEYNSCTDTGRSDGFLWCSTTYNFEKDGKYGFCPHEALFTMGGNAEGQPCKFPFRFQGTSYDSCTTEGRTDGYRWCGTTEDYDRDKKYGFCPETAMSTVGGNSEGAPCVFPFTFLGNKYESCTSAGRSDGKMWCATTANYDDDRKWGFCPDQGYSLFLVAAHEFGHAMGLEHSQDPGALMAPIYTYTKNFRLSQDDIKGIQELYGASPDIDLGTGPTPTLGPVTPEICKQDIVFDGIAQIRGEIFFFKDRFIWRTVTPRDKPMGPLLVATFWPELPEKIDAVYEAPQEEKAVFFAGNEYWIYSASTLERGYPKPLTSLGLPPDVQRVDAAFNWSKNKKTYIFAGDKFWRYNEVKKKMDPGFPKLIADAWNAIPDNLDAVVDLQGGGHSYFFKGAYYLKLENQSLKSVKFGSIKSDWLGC
Sequence of Carbonic anhydrase 1 (P00915 whole entry): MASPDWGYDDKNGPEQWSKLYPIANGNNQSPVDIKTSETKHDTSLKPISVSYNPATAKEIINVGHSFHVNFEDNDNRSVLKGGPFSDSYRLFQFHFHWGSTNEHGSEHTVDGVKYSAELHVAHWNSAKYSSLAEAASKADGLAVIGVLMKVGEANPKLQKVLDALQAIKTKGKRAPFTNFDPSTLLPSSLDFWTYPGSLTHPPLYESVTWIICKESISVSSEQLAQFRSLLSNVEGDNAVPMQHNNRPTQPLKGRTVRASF

| SMILES | IC50 (Carbonic anhydrase 1) [µM] | IC50 (Carbonic anhydrase 9) [µM] | IC50 (Carbonic anhydrase 2) [µM] | IC50 (Carbonic anhydrase 12) [µM] | other results |
| --- | --- | --- | --- | --- | --- |
| O=C(NCCNC(=O)P(=O)(O)O)c1ccc(Oc2ccccc2)cc1 | 0.62 | 9.9 | 0.61 | 8.6 | IC50 [1]: 20 µM |
| O=C(NC1CCCC1)P(=O)(O)O [(CYCLOPENTYLAMINO)CARBONYLPHOSPHONIC ACID] | 8.79 | 8.97 | 7.41 | 7.26 | Activity (B16-F10 [2]): 86%; Activity (B16-F10 [3]): 80% |
| CCOP(=O)(OCC)C(=O)NCCCCNC(=O)P(=O)(OCC)OCC | 9.7 | 9.65 | 9.59 | 2.72 |  |
| CCC(CC)NC(=O)P(=O)(O)O | 6.71 | 8.26 | 8.79 | 4.65 |  |
| N[C@@H]1CCCC[C@@H]1NC(=O)P(=O)(O)O | 1.6 | 8.6 | 1.32 | 6 |  |
| O=C(NC1CCCCC1)P(=O)(O)O [(CYCLOHEXYLAMINO)CARBONYLPHOSPHONIC ACID] | 7.89 | 8.89 | 8.81 | 5.59 |  |
| N[C@H]1CCCC[C@@H]1NC(=O)P(=O)(O)O | 8.24 | 7.14 | 8.28 | 8.26 |  |
| O=C(NCCCCNS(=O)(=O)c1ccc(Oc2ccccc2)cc1)P(=O)(O)O | 0.75 | 6.1 | 0.1 | 5.6 |  |
| C[C@@H](NC(=O)P(=O)(O)O)C1CCCCC1 | 6.78 | 8.12 | 8.85 | 6.97 |  |
| O=C(NC1CCCCCCC1)P(=O)(O)O [(CYCLOOCTYLAMINO)CARBONYLPHOSPHONIC ACID] | 8.02 | 9.14 | 7.89 | 7.99 |  |
| O=C(NCCCCNC(=O)P(=O)(O)O)P(=O)(O)O | 9.74 | 9.1 | 8.82 | 6.02 |  |
| O=C(NCCCCCCNS(=O)(=O)c1ccc(Oc2ccccc2)cc1)P(=O)(O)O | 0.38 | 7 | 0.1 | 6.2 | Activity (HT-1080 [4]): Dose-dependent effect; Activity (HeLa [5]): Non-toxic; fold change (FC) (HT-1080 [6]): 1; Activity (B16-F10 [7]): 90%; Activity (B16-F10 [3]): 50%; fold change (FC) (HT-1080 [8]): 1.9; IC50 [9]: 4 µM; fold change (FC) (HT-1080 [10]): 1.3; Activity (B16-F10 [11]): 82%; Activity (HT-1080 [12]): Non-toxic; Activity (HeLa [13]): Dose-dependent effect |
| O=C(NCCCCCNS(=O)(=O)c1ccc(Oc2ccccc2)cc1)P(=O)(O)O | 0.52 | 6.3 | 0.31 | 5.7 | Activity (B16-F10 [2]): 90%; Activity (HT-1080 [4]): Dose-dependent effect; Activity (HeLa [5]): Non-toxic; half-life [14]: 9 h; fold change (FC) (HT-1080 [6]): 1; Activity (B16-F10 [7]): 76%; Activity (B16-F10 [3]): 80%; fold change (FC) (HT-1080 [8]): 2.3; Drug absorption (Hydroxyapatite): 44%; fold change (FC) (HeLa [15]): 1.3; IC50 [9]: 4 µM; Vd [16]: 1.65 L/kg; fold change (FC) (HT-1080 [10]): 1.5; Activity (B16-F10 [11]): 57%; Activity (HT-1080 [12]): Non-toxic; Activity (HeLa [13]): Dose-dependent effect |
| O=C(NCCN1CCCCC1)P(=O)(O)O | 7.82 | 9 | 8.6 | 7.64 |  |
| O=C(NCCCNS(=O)(=O)c1ccc(Oc2ccccc2)cc1)P(=O)(O)O | 0.71 | 6.8 | 0.58 | 6.4 |  |
| CC(C)NC(=O)P(=O)(O)O [(ISOPROPYLAMINO)CARBONYLPHOSPHONIC ACID] | 8.81 | 8.3 | 13.9 | 7.27 |  |
| O=C(NCCNS(=O)(=O)c1ccc(Oc2ccccc2)cc1)P(=O)(O)O | 0.98 | 7 | 0.82 | 6.9 |  |
| O=C(NCC1CCCCC1)P(=O)(O)O [CYCLOHEXYLMETHYLCARBAMOYLPHOSPHONIC ACID] | 7.36 | 8.59 | 9.23 | 7.44 |  |
| C[C@H](NC(=O)P(=O)(O)O)C1CCCCC1 | 5.31 | 6.36 | 9.45 | 6.64 |  |
| O=C(NCCN1CCCC1)P(=O)(O)O | 9.43 | 8.8 | 9.66 | 5.43 |  |
| O=C(NCCc1ccccc1)P(=O)(O)O [PHENETHYLCARBAMOYLPHOSPHONIC ACID] | 7.68 | 6.08 | 8 | 5.44 |  |
